Where two headings read alike, the source gives them in different places.
How the values were obtained:
[1] = tested on: AGS cells (KRAS G12D), phospho-ERK; test: pERK In Cell Western (ICW) assay (Method B), AGS cells; type: cell-based; conditions: Table 4, pERK, 3 hours, read-out: ICW-AGS
Method in brief: (§1)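 GP2D (10,000 cells/well) and AGS (5,000 cells/well) cells were treated for 3 h at 37 °C with a 10-point, ½-log dilution series (top […]). They were then fixed and immunostained for phospho-ERK. pERK signal was normalised to DRAQ5 and expressed as % of DMSO, with IC50 from a 4-parameter fit.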

[2] = target: T1, GST-tagged KRAS-G12D (2-169) (Homo sapiens, UniProt P01116, G12D); test: Nucleotide exchange assay (NEA), SOS-mediated, HTRF, KRAS G12D; type: biochemical; conditions: Table 4, IC50 extracted at 30 min
T1 construct: GST-tagged KRAS-G12D (2-169, Reaction Biology, MSC-11-539); purchased Reaction Biology MSC-11-539 (KRAS G12D); MSC-11-502 (SOS1cat)
T1 sequence (P01116 2-169 isoform P01116-2 G12D): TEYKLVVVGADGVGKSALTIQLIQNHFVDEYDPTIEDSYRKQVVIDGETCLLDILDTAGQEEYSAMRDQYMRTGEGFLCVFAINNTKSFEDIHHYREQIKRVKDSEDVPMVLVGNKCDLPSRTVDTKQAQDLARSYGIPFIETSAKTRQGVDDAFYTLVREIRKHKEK
Method in brief: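 IC50 values come from 4-parameter fits at the 30 min time point of an SOS-driven exchange read by HTRF, normalised to DMSO (0%) and SOS-free blank (100%). Final reaction: 5 nM GST-KRAS-G12D (2-169), 20 nM SOScat, 150 nM fluorescent GTP-DY-647P1, after 1 h RT compound preincubation with KRAS and Tb-cryptate anti-GST.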

[3] = tested on: GP2D cells (KRAS G12D), phospho-ERK; test: pERK In Cell Western (ICW) assay, GP2D cells; type: cell-based; conditions: Table 4, 3 hours
Method in brief: as §1

Structure (SMILES) | IC50 ([1]; Homo sapiens) [nM] | IC50 [2] [nM] | IC50 [3] [nM] | IC50 [1] [nM] | IC50 ([2]; listed as 74.1) [nM] | IC50 ([3]; listed as 74.1) [nM]
N#Cc1c(N2C[C@H]3CC[C@@H](C2)N3)nc(OCC2(CN3CCOCC3)CC2)nc1N1CC2(CCCCc3sc(N)c(C#N)c32)C1 [Compound 70, 2-amino-1′-[5-cyano-2-[[1-(morpholinomethyl)cyclopropyl]methoxy]-6-[(1R,5S)-3,8-diazabicyclo[3.2.1]octan-3-yl]pyrimidin-4-yl]spiro[5,6,7,8-tetrahydrocyclohepta[b]thiophene-4,3′-azetidine]-3-carbonitrile] | 10 to 100 | < 10 | 10 to 100 | – | – | –
CN(C)CC1(COc2nc(N3CC4CCC(C3)N4)c(C#N)c(N3CC4(CCc5sc(N)c(C#N)c54)C3)n2)CC1(F)F (stereo not drawn) [Compound 74A, 2-amino-1′-[5-cyano-6-(3,8-diazabicyclo[3.2.1]octan-3-yl)-2-[[(1*)-1-[(dimethylamino)methyl]-2,2-difluoro-cyclopropyl]methoxy]pyrimidin-4-yl]spiro[5,6-dihydrocyclopenta[b]thiophene-4,3′-azetidine]-3-carbonitrile] | – | – | – | 1 to 10 | < 10 | 1 to 10
N#Cc1c(N2C[C@H]3CC[C@@H](C2)N3)nc(OCc2ccn[nH]2)nc1N1CC2(CCc3sc(N)c(C#N)c32)C1 [Compound 79, 2-amino-1′-[5-cyano-6-[(1R,5S)-3,8-diazabicyclo[3.2.1]octan-3-yl]-2-(1H-pyrazol-5-ylmethoxy)pyrimidin-4-yl]spiro[5,6-dihydrocyclopenta[b]thiophene-4,3′-azetidine]-3-carbonitrile] | 10 to 100 | < 10 | 10 to 100 | – | – | –
CN1CCN(CC2(COc3nc(N4C[C@H]5CC[C@@H](C4)N5)c(C#N)c(N4CC5(CCc6sc(N)c(C#N)c65)C4)n3)CC2)CC1=O [Compound 80, 2-amino-1′-[5-cyano-2-[[1-[(4-methyl-3-oxo-piperazin-1-yl)methyl]cyclopropyl]methoxy]-6-[(1R,5S)-3,8-diazabicyclo[3.2.1]octan-3-yl]pyrimidin-4-yl]spiro[5,6-dihydrocyclopenta[b]thiophene-4,3′-azetidine]-3-carbonitrile] | 10 to 100 | < 10 | 1 to 10 | – | – | –
CO[C@H]1CN(CC2(COc3nc(N4C[C@H]5CC[C@@H](C4)N5)c(C#N)c(N4CC5(CCc6sc(N)c(C#N)c65)C4)n3)CC2)C[C@@H]1F [Compound 81, 2-amino-1′-[5-cyano-6-[(1R,5S)-3,8-diazabicyclo[3.2.1]octan-3-yl]-2-[[1-[[(3S,4S)-3-fluoro-4-methoxy-pyrrolidin-1-yl]methyl]cyclopropyl]methoxy]pyrimidin-4-yl]spiro[5,6-dihydrocyclopenta[b]thiophene-4,3′-azetidine]-3-carbonitrile] | 100 to 1000 | < 10 | 10 to 100 | – | – | –
Cc1nc(-c2nn3c(c2Cl)CN(c2nc(OC[C@@]45CCCN4C[C@H](F)C5)nc(N4CC5(CCc6sc(N)c(C#N)c65)C4)c2C#N)CCC3)n(C)n1 [Compound 85, 2-amino-1′-[6-[3-chloro-2-(2,5-dimethyl-1,2,4-triazol-3-yl)-4,6,7,8-tetrahydropyrazolo[1,5-a][1,4]diazepin-5-yl]-5-cyano-2-[[(2R,8S)-2-fluoro-1,2,3,5,6,7-hexahydropyrrolizin-8-yl]methoxy]pyrimidin-4-yl]spiro[5,6-dihydrocyclopenta[b]thiophene-4,3′-azetidine]-3-carbonitrile] | 100 to 1000 | < 10 | 10 to 100 | – | – | –
N#Cc1c(N2C[C@H]3CC[C@@H](C2)N3)nc(OCC2(CN3CCOCC3)CC2)nc1N1CC2(C=CCc3sc(N)c(C#N)c32)C1 [Compound 86, 2-amino-1′-[5-cyano-2-[[1-(morpholinomethyl)cyclopropyl]methoxy]-6-[(1R,5S)-3,8-diazabicyclo[3.2.1]octan-3-yl]pyrimidin-4-yl]spiro[7H-benzothiophene-4,3′-azetidine]-3-carbonitrile] | 10 to 100 | < 10 | 1 to 10 | – | – | –
CN(C)CC1(COc2nc(N3CCCn4nc(C(=O)N(C)C)c(Cl)c4C3)c(C#N)c(N3CC4(CCc5sc(N)c(C#N)c54)C3)n2)CC1(F)F (stereo not drawn) [Compound 87, 5-[6-(2-amino-3-cyano-spiro[5,6-dihydrocyclopenta[b]thiophene-4,3′-azetidine]-1′-yl)-5-cyano-2-[[1-[(dimethylamino)methyl]-2,2-difluoro-cyclopropyl]methoxy]pyrimidin-4-yl]-3-chloro-N,N-dimethyl-4,6,7,8-tetrahydropyrazolo[1,5-a][1,4]diazepine-2-carboxamide] | 10 to 100 | < 10 | 1 to 10 | – | – | –
C[C@H](Oc1nc(N2C[C@H]3CC[C@@H](C2)N3)c(C#N)c(N2CC3(CCc4sc(N)c(C#N)c43)C2)n1)[C@@H]1CCCN1C [Compound 88, 2-amino-1′-[5-cyano-6-[(1R,5S)-3,8-diazabicyclo[3.2.1]octan-3-yl]-2-[(1S)-1-[(2S)-1-methylpyrrolidin-2-yl]ethoxy]pyrimidin-4-yl]spiro[5,6-dihydrocyclopenta[b]thiophene-4,3′-azetidine]-3-carbonitrile] | 1000 to 10000 | 10 to 100 | 1000 to 10000 | – | – | –
N#Cc1c(N2C[C@H]3CC[C@@H](C2)N3)nc(OCC2(CN3C[C@@H]4C[C@H]3CO4)CC2)nc1N1CC2(CCc3sc(N)c(C#N)c32)C1 [Compound 89, 2-amino-1′-[5-cyano-6-[(1R,5S)-3,8-diazabicyclo[3.2.1]octan-3-yl]-2-[[1-[[(1S,4S)-2-oxa-5-azabicyclo[2.2.1]heptan-5-yl]methyl]cyclopropyl]methoxy]pyrimidin-4-yl]spiro[5,6-dihydrocyclopenta[b]thiophene-4,3′-azetidine]-3-carbonitrile] | 10 to 100 | < 10 | 10 to 100 | – | – | –
CN(C)C(=O)c1nn2c(c1Cl)CN(c1nc(OC[C@@]34CCCN3C[C@H](F)C4)nc(N3CC4(CCc5sc(N)c(C#N)c54)C3)c1C#N)CC(F)(F)C2 [Compound 91, 5-[6-(2-amino-3-cyano-spiro[5,6-dihydrocyclopenta[b]thiophene-4,3′-azetidine]-1′-yl)-5-cyano-2-[[(2R,8S)-2-fluoro-1,2,3,5,6,7-hexahydropyrrolizin-8-yl]methoxy]pyrimidin-4-yl]-3-chloro-7,7-difluoro-N,N-dimethyl-6,8-dihydro-4H-pyrazolo[1,5-a][1,4]diazepine-2-carboxamide] | 10 to 100 | < 10 | 10 to 100 | – | – | –
